System: GNS166 cells
Assay: Label-free proteomics differential expression
Assay type: cell-based, human
Experimental: Proteomic studies were performed by the Proteomics Facility of the CIC bioGUNE by label-free relative quantification on nLC MS/MS. […] In both approaches, the top 20 enriched terms were plotted and the pathways were clustered using divisive hierarchical clustering based on pairwise Jaccard distances.

Question: What does the source list for C#CCN(Cc1cc2cc(OCCCN3CCCCC3)ccc2n1S(=O)(=O)c1ccccc1)C(=O)CCCCCCC(=O)NO [DDI]?
Answer: LogFC CAF1B_HUMAN (protein Q13112 GN=CHAF1B): -1.512; LogFC STK3_HUMAN (protein Q13188 GN=STK3): 0.6701; Direction MD2L1_HUMAN (protein Q13257): Down; LogFC MD2L1_HUMAN (protein Q13257): -1.113; LogFC PABP4_HUMAN (protein Q13310 GN=PABPC4): -0.5988; Direction MTA1_HUMAN (protein Q13330): Down; LogFC MTA1_HUMAN (protein Q13330): -1.705; Direction 2A5G_HUMAN (protein Q13362): Down; LogFC 2A5G_HUMAN (protein Q13362): -1.224; Direction SQSTM_HUMAN (protein Q13501): Down; LogFC SQSTM_HUMAN (protein Q13501): -1.0987; LogFC TBB3_HUMAN (protein Q13509 GN=TUBB3): 0.7942; LogFC PKD2_HUMAN (protein Q13563 GN=PKD2): -0.7081; LogFC TRA2A_HUMAN (protein Q13595 GN=TRA2A): -0.7095; LogFC TBB2A_HUMAN (protein Q13885 GN=TUBB2A): 0.9316; LogFC IDI1_HUMAN (protein Q13907 GN=IDI1): 0.7277; Direction CKAP5_HUMAN (protein Q14008): Down; LogFC CKAP5_HUMAN (protein Q14008): -0.6393; Direction PDE1C_HUMAN (protein Q14123): Down; LogFC PDE1C_HUMAN (protein Q14123): -1.117; Direction EIF3A_HUMAN (protein Q14152): Down; LogFC EIF3A_HUMAN (protein Q14152): -0.389; Direction UBP2L_HUMAN (protein Q14157): Down; LogFC UBP2L_HUMAN (protein Q14157): -0.8648; LogFC TTL12_HUMAN (protein Q14166 GN=TTLL12): 0.5228; Direction DOCK1_HUMAN (protein Q14185): Down; LogFC DOCK1_HUMAN (protein Q14185): -1.615; Direction DYHC1_HUMAN (protein Q14204): Down; LogFC DYHC1_HUMAN (protein Q14204): -0.3165; Direction NUCG_HUMAN (protein Q14249): Down; LogFC NUCG_HUMAN (protein Q14249): -2.036; Direction FLOT2_HUMAN (protein Q14254): Down; LogFC FLOT2_HUMAN (protein Q14254): -1.186; Direction GAS6_HUMAN (protein Q14393): Down; LogFC GAS6_HUMAN (protein Q14393): -2.504; LogFC PLSI_HUMAN (protein Q14651 GN=PLS1): 1.442; Direction SMC1A_HUMAN (protein Q14683): Down; LogFC SMC1A_HUMAN (protein Q14683): -0.5055; LogFC LPIN1_HUMAN (protein Q14693 GN=LPIN1): 0.9551; Direction UBP10_HUMAN (protein Q14694): Down; LogFC UBP10_HUMAN (protein Q14694): -0.9311; Direction KIF22_HUMAN (protein Q14807): Down; LogFC KIF22_HUMAN (protein Q14807): -3.469; LogFC CHD4_HUMAN (protein Q14839 GN=CHD4): -0.985; Direction IMB1_HUMAN (protein Q14974): Down; LogFC IMB1_HUMAN (protein Q14974): -0.6185; Direction CND2_HUMAN (protein Q15003): Down; LogFC CND2_HUMAN (protein Q15003): -1.758; LogFC SART3_HUMAN (protein Q15020 GN=SART3): -0.5999; Direction CND1_HUMAN (protein Q15021): Down; LogFC CND1_HUMAN (protein Q15021): -2.0518; Direction SNX17_HUMAN (protein Q15036): Down; LogFC SNX17_HUMAN (protein Q15036): -1.453; Direction SYK_HUMAN (protein Q15046): Down; LogFC SYK_HUMAN (protein Q15046): -0.4877; Direction OXA1L_HUMAN (protein Q15070): Down; LogFC OXA1L_HUMAN (protein Q15070): -1.062; LogFC PMVK_HUMAN (protein Q15126 GN=PMVK): 1.337; Direction PLEC_HUMAN (protein Q15149): Down; LogFC PLEC_HUMAN (protein Q15149): -0.7; LogFC NECT1_HUMAN (protein Q15223 GN=NECTIN1): -1.589; Direction LRC41_HUMAN (protein Q15345): Down; LogFC LRC41_HUMAN (protein Q15345): -1.0607; LogFC KS6A1_HUMAN (protein Q15418 GN=RPS6KA1): 1.988; LogFC PP1R7_HUMAN (protein Q15435 GN=PPP1R7): 0.5315; LogFC MARE2_HUMAN (protein Q15555 GN=MAPRE2): 3.286; LogFC CIP4_HUMAN (protein Q15642 GN=TRIP10): 1.0065; Direction PCH2_HUMAN (protein Q15645): Down; LogFC PCH2_HUMAN (protein Q15645): -0.9654; Direction MSMO1_HUMAN (protein Q15800): Down; LogFC MSMO1_HUMAN (protein Q15800): -0.8085; LogFC STXB2_HUMAN (protein Q15833 GN=STXBP2): 0.5821; Direction PKN2_HUMAN (protein Q16513): Down; LogFC PKN2_HUMAN (protein Q16513): -0.7145; Direction DDB1_HUMAN (protein Q16531): Down; LogFC DDB1_HUMAN (protein Q16531): -0.3715; LogFC DPYL2_HUMAN (protein Q16555 GN=DPYSL2): 0.9356; LogFC UBE2S_HUMAN (protein Q16763 GN=UBE2S): -1.229; LogFC CP51A_HUMAN (protein Q16850 GN=CYP51A1): -0.6587; LogFC CGT_HUMAN (protein Q16880 GN=UGT8): 1.956; LogFC TRXR1_HUMAN (protein Q16881 GN=TXNRD1): 0.6582; Direction NICA_HUMAN (protein Q92542): Down; LogFC NICA_HUMAN (protein Q92542): -1.398; Direction TM9S4_HUMAN (protein Q92544): Down; LogFC TM9S4_HUMAN (protein Q92544): -1.2661; LogFC TBCD5_HUMAN (protein Q92609 GN=TBC1D5): -0.4214; LogFC NU205_HUMAN (protein Q92621 GN=NUP205): -0.751; Direction PXDN_HUMAN (protein Q92626): Down; LogFC PXDN_HUMAN (protein Q92626): -0.8349; Direction AP2C_HUMAN (protein Q92754): Down; LogFC AP2C_HUMAN (protein Q92754): -1.895; Direction SYMPK_HUMAN (protein Q92797): Down; LogFC SYMPK_HUMAN (protein Q92797): -0.8433; LogFC KIFA3_HUMAN (protein Q92845 GN=KIFAP3): 1.431; Direction ARHG1_HUMAN (protein Q92888): Down; LogFC ARHG1_HUMAN (protein Q92888): -0.7775; Direction ARHG2_HUMAN (protein Q92974): Down; LogFC ARHG2_HUMAN (protein Q92974): -0.6456; LogFC USP9X_HUMAN (protein Q93008 GN=USP9X): 0.7813; Direction CUL5_HUMAN (protein Q93034): Down; LogFC CUL5_HUMAN (protein Q93034): -0.617; LogFC VPP1_HUMAN (protein Q93050 GN=ATP6V0A1): 1.447; Direction MED12_HUMAN (protein Q93074): Down; LogFC MED12_HUMAN (protein Q93074): -2.0643; Direction KPBB_HUMAN (protein Q93100): Down; LogFC KPBB_HUMAN (protein Q93100): -2.118; Direction SEC62_HUMAN (protein Q99442): Down; LogFC SEC62_HUMAN (protein Q99442): -2.138; LogFC VAT1_HUMAN (protein Q99536 GN=VAT1): 1.276; Direction NUP88_HUMAN (protein Q99567): Down; LogFC NUP88_HUMAN (protein Q99567): -0.8011; LogFC NEUS_HUMAN (protein Q99574 GN=SERPINI1): 4.964; LogFC DNJC7_HUMAN (protein Q99615 GN=DNAJC7): -0.8769; Direction MGST2_HUMAN (protein Q99735): Down; LogFC MGST2_HUMAN (protein Q99735): -1.016

Reference: article PMC11971462, “Generation and validation of a novel multitarget small molecule in glioblastoma” (Cell Death & Disease, 2025)
